# Test results from publication PMC9944328 (Nature Communications, 2023).
# System: SSTR2 mutants
# Test: SSTRs Gi-mediated cAMP inhibition, GloSensor, HEK293, 5 μM forskolin, 15 min room temperature (SSTR2 mutants)
# Assay type: cell-based, human
# Details: for Fold of WT: Gi signaling EC50
# Experimental: The levels of the intracellular 3′, 5′-cyclic AMP (cAMP) were measured by the GloSensor cAMP assay (Promega) as described in the previous studies[28],[41] which has been widely used. The human full-length SSTRs and mutants were cloned into the pcDNA3.1+ vector with a HA signal sequence followed by a Flag tag at the N-terminus. HEK293 cells (ATCC, CRL-1573) were seeded into 6-well microplates at a density of 1.0 × 10^6 cells/well and cultured for 24 h at 37 °C with 5% CO2. Cells were then co-transfected with SSTR wild-type or mutants and GloSensor plasmids. After 24 h of transfection, the cells were dissociated with TrypLE™ Express Enzyme (1X) (Thermo Fisher Scientific) and collected by centrifugation at 500 × g for 5 min. Then the collected cells were suspended in Hank’s balanced salt solution [HBSS (Thermo Fisher Scientific)] supplemented with […] (YEASEN), and then the suspension cells were seeded into 96-well plates with 90 μl/well. After incubating at room temperature for 40 min, 5 μM forskolin and ligands diluted in HBSS were added to each well and the plates were incubated at room temperature for 15 min. […] were measured using the Synergy H1 microplate reader (BioTek) and the data presented are means of at least three independent experiments.
structure (smiles),measurement,setting,value
N#Cc1cccc(-c2ccc3ncc(-c4cc(F)cc(F)c4)c(N4CCC(N)CC4)c3c2)c1O [paltusotine],Activation potency of mutant,"D295(7.36) substituted with a bulkier side chain, SSTR2",reduced the activation potency
same,"Bottom (best-fit value), cAMP inhibition",D295A-1 (run 1),-5.811
same,"LogEC50 (best-fit value), cAMP inhibition",D295A-1 (run 1),-7.797
same,"Span (best-fit value), cAMP inhibition",D295A-1 (run 1),125.1
same,"Top (best-fit value), cAMP inhibition",D295A-1 (run 1),119.3
same,"Bottom (best-fit value), cAMP inhibition",D295A-2 (run 2),-4.778
same,"LogEC50 (best-fit value), cAMP inhibition",D295A-2 (run 2),-7.798
same,"Span (best-fit value), cAMP inhibition",D295A-2 (run 2),119.6
same,"Top (best-fit value), cAMP inhibition",D295A-2 (run 2),114.8
same,"Bottom (best-fit value), cAMP inhibition",D295A-3 (run 3),-4.901
same,"LogEC50 (best-fit value), cAMP inhibition",D295A-3 (run 3),-7.743
same,"Span (best-fit value), cAMP inhibition",D295A-3 (run 3),121.4
same,"Top (best-fit value), cAMP inhibition",D295A-3 (run 3),116.5
same,Bottom (best-fit),"D295F, run 1",-4.815
same,LogEC50,"D295F, run 1",-9.49
same,Span (best-fit),"D295F, run 1",83.08
same,Top (best-fit),"D295F, run 1",78.27
same,Bottom (best-fit),"D295F, run 2",-4.16
same,LogEC50,"D295F, run 2",-9.689
same,Span (best-fit),"D295F, run 2",84.37
same,Top (best-fit),"D295F, run 2",80.21
same,Bottom (best-fit),"D295F, run 3",9.942
same,LogEC50,"D295F, run 3",-8.808
same,Span (best-fit),"D295F, run 3",67.74
same,Top (best-fit),"D295F, run 3",77.68
same,Bottom (best-fit value),F208A-1 (run 1),6.193
same,LogEC50 (best-fit value),F208A-1 (run 1),-7.826
same,Span (best-fit value),F208A-1 (run 1),90.63
same,Top (best-fit value),F208A-1 (run 1),96.82
same,Bottom (best-fit value),F208A-2 (run 2),3.33
same,LogEC50 (best-fit value),F208A-2 (run 2),-7.007
same,Span (best-fit value),F208A-2 (run 2),88.37
same,Top (best-fit value),F208A-2 (run 2),91.7
same,Bottom (best-fit value),F208A-3 (run 3),-2.358
same,LogEC50 (best-fit value),F208A-3 (run 3),-7.101
same,Span (best-fit value),F208A-3 (run 3),89.17
same,Top (best-fit value),F208A-3 (run 3),86.81
same,Bottom (best-fit value),F265A-1 (run 1),-8.311
same,LogEC50 (best-fit value),F265A-1 (run 1),-7.946
same,Span (best-fit value),F265A-1 (run 1),113.6
same,Top (best-fit value),F265A-1 (run 1),105.3
same,Bottom (best-fit value),F265A-2 (run 2),-6.152
same,LogEC50 (best-fit value),F265A-2 (run 2),-7.834
same,Span (best-fit value),F265A-2 (run 2),121
same,Top (best-fit value),F265A-2 (run 2),114.8
same,Bottom (best-fit value),F265A-3 (run 3),-8.585
same,LogEC50 (best-fit value),F265A-3 (run 3),-8.008
same,Span (best-fit value),F265A-3 (run 3),129.6
same,Top (best-fit value),F265A-3 (run 3),121
same,Bottom (best-fit value),F272A-1 (run 1),9.906
same,"LogEC50 (best-fit value), cAMP inhibition",F272A-1 (run 1),-7.753
same,"Span (best-fit value), cAMP inhibition",F272A-1 (run 1),47.19
same,Top (best-fit value),F272A-1 (run 1),57.1
same,Bottom (best-fit value),F272A-2 (run 2),0.969
same,"LogEC50 (best-fit value), cAMP inhibition",F272A-2 (run 2),-7.573
same,"Span (best-fit value), cAMP inhibition",F272A-2 (run 2),51.72
same,Top (best-fit value),F272A-2 (run 2),52.69
same,Bottom (best-fit value),F272A-3 (run 3),2.026
same,"LogEC50 (best-fit value), cAMP inhibition",F272A-3 (run 3),-6.838
same,"Span (best-fit value), cAMP inhibition",F272A-3 (run 3),59.81
same,Top (best-fit value),F272A-3 (run 3),61.84
same,"Bottom (best-fit value), cAMP inhibition",F294A-1 (run 1),3.955
same,"LogEC50 (best-fit value), cAMP inhibition",F294A-1 (run 1),-8.447
same,"Span (best-fit value), cAMP inhibition",F294A-1 (run 1),85.58
same,"Top (best-fit value), cAMP inhibition",F294A-1 (run 1),89.53
same,"Bottom (best-fit value), cAMP inhibition",F294A-2 (run 2),-11.05
same,"LogEC50 (best-fit value), cAMP inhibition",F294A-2 (run 2),-8.376
same,"Span (best-fit value), cAMP inhibition",F294A-2 (run 2),101.1
same,"Top (best-fit value), cAMP inhibition",F294A-2 (run 2),90.09
same,"Bottom (best-fit value), cAMP inhibition",F294A-3 (run 3),15.03
same,"LogEC50 (best-fit value), cAMP inhibition",F294A-3 (run 3),-9.824
same,"Span (best-fit value), cAMP inhibition",F294A-3 (run 3),106.4
same,"Top (best-fit value), cAMP inhibition",F294A-3 (run 3),121.4
same,Bottom (best-fit),"F294Y, run 1",11.7
same,LogEC50,"F294Y, run 1",-9.133
same,Span (best-fit),"F294Y, run 1",95.55
same,Top (best-fit),"F294Y, run 1",107.3
same,Bottom (best-fit),"F294Y, run 2",3.363
same,LogEC50,"F294Y, run 2",-9.003
same,Span (best-fit),"F294Y, run 2",99.71
same,Top (best-fit),"F294Y, run 2",103.1
same,Bottom (best-fit),"F294Y, run 3",-9.817
same,LogEC50,"F294Y, run 3",-9.17
same,Span (best-fit),"F294Y, run 3",128.4
same,Top (best-fit),"F294Y, run 3",118.6
same,Fold of WT,SSTR2 D295(7.36)A,1.30
same,Fold of WT,SSTR2 F127(3.37)A,0.54
same,Fold of WT,SSTR2 F208(5.38)A,34.16
same,Fold of WT,SSTR2 F265(6.44)A,6.35
same,Fold of WT,SSTR2 F272A,33.58
same,Fold of WT,SSTR2 F294(7.35)A,1.40
same,Fold of WT,SSTR2 I130(3.40)A,10.09
same,Fold of WT,SSTR2 I195(45.52)A,44.36
same,Fold of WT,SSTR2 K291(7.32)A,2.78
same,Fold of WT,SSTR2 L99(2.60)A,9.09
same,Fold of WT,SSTR2 N276(6.55)A,0.88
same,Fold of WT,SSTR2 P220(5.50)A,1.71
same,Fold of WT,SSTR2 Q102(2.63)A,16.51
same,Fold of WT,SSTR2 T194(45.51)A,51.98
same,Fold of WT,SSTR2 V103(2.64)A,17.54
same,Fold of WT,SSTR2 W269(6.48)A,0.23
